Measured values taken from article PMC5012427 (Molecular cell, 2016).
Numbering of substitutions follows the chain as printed.

How the values were obtained:
Coq8^NΔ41 (Coq8p) = target: T1, Coq8^NΔ41 (Coq8p) (Saccharomyces cerevisiae, UniProt P27697, A197G); assay: nucleotide binding; settings: A-rich loop A-to-G mutant
T1 sequence (P27697 42-501 A197G): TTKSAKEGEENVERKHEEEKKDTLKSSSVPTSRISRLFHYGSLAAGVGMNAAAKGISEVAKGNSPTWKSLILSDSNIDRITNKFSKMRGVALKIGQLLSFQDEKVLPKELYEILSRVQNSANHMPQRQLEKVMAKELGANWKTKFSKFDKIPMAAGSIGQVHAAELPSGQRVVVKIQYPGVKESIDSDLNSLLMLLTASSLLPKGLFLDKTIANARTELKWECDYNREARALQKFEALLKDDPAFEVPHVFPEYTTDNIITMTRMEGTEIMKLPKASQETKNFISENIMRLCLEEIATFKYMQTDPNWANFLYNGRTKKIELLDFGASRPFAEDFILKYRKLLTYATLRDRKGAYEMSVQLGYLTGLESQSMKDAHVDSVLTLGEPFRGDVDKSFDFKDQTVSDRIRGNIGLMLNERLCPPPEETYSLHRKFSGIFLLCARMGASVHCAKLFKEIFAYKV

MBP-Coq8^NΔ41 = target: T2, MBP-Coq8^NΔ41 (Saccharomyces cerevisiae, UniProt P27697); assay: co-purification, LC-MS/MS lipidomics; type: binding; settings: co-purified from E. coli; WT compared with mutants
T2 sequence (P27697 42-501): T1 sequence (P27697 42-501 A197G) with G156A

SMILES	nucleotide binding (method in supplement) (Coq8^NΔ41 (Coq8p))	co-purification, LC-MS/MS lipidomics (MBP-Coq8^NΔ41)
Nc1ncnc2c1ncn2[C@@H]1O[C@H](COP(=O)(O)OP(=O)(O)O)[C@@H](O)[C@H]1O [ADP]	selectivity for ADP over ATP that can be reversed by an A-rich loop A-to-G mutation	
CC(C)=CCC/C(C)=C/CC/C(C)=C/CC/C(C)=C/CC/C(C)=C/CC/C(C)=C/CC/C(C)=C/Cc1ccccc1O [heptaprenylphenol]		binding of OHB, OPP, and heptaprenylphenol (HPP) was decreased by Coq8p active site mutations
